Test results from US20050182073A1, “5-Phenylpyrimidines” (priority 2004, published 2005).

Assay: logP determination by HPLC (EEC Directive 79/831 Annex V. A8)
Assay type: physicochemical
Conditions: gradient method, acetonitrile/0.1% aqueous phosphoric acid
Procedure: The logP values were determined in accordance with EEC Directive 79/831 Annex V. A8 by HPLC (gradient method, acetonitrile/0.1% aqueous phosphoric acid).

Compound | chromatographic logP
CC(C)Cc1nc([S+](C)[O-])nc(Cl)c1-c1ccc(F)cc1Cl (stereo not shown) [4-chloro-5-(2-chloro-4-fluorophenyl)-6-isobutyl-2-(methylsulphinyl)pyrimidine] | 3.27
CC(C)Cc1nc(-n2cncn2)nc(Cl)c1-c1ccc(F)cc1Cl [Example 1, 4-chloro-5-(2-chloro-4-fluorophenyl)-6-isobutyl-2-(1H-1,2,4-triazol-1-yl)pyrimidine] | 3.79
CSc1nc(Cl)c(-c2ccc(F)cc2Cl)c(CC(C)C)n1 [II-2, 4-chloro-5-(2-chloro-4-fluorophenyl)-6-isobutyl-2-(methylthio)pyrimidine] | 5.67
CC(C)Cc1nc(S(C)(=O)=O)nc(Cl)c1-c1ccc(F)cc1Cl [III-2a, 4-chloro-5-(2-chloro-4-fluorophenyl)-6-isobutyl-2-(methylsulphonyl)pyrimidine] | 3.82
